Where a name gives a salt, the structure may show the parent alone.

This test concerns complement level. Nature of the test: Complement Level Reduction Test. The format is in vivo. Conditions: serum of dosed guinea pigs, undiluted serum capillary tube method, compared to undosed controls.

Take `O=C(Nc1ccc(-n2nc3ccc4cc(S(=O)(=O)O)cc(O)c4c3n2)c(S(=O)(=O)O)c1)Nc1ccc(-n2nc3ccc4cc(S(=O)(=O)O)cc(O)c4c3n2)c(S(=O)(=O)O)c1` [3,3'-Ureylenebis[6-(9-hydroxy-7-sulfo-2H-naphtho[1,2-d]triazol-2-yl)benzenesulfonic acid] tetrasodium salt]: the “% Reduction Complement, In Vivo” value worked out at 42%.

The values above are taken from US3985884A, “Complement inhibitors” (American Cyanamid Company, priority 1975, dated 1976).
